Laboratory results: US11197933B2, “Polysubunit opioid prodrugs resistant to overdose and abuse” (Elysium Therapeutics, Inc., priority 2017, dated 2021)

How the values were obtained:
trypsin [1] = molecular target: T1, trypsin (Bos taurus, UniProt P00760); test: Inhibition of trypsin-catalyzed hydrolysis of BANA (percent BANA remaining vs. time); format: biochemical; conditions: for Ability to inhibit trypsin (result in words): increasing concentrations, BANA substrate
T1 construct: gene PRSS1
T1 sequence (P00760 24-246): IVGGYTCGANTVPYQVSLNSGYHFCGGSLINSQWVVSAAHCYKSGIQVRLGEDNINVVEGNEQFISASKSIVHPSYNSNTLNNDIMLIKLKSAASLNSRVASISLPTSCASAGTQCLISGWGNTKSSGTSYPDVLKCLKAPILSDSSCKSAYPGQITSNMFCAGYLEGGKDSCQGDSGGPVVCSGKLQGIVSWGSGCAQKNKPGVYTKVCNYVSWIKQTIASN
Method: This example describes in vitro experiments with a compound of the disclosure to provide a mechanism of overdose protection.
The effect of increasing concentrations of compounds II-D-11, II-D-23, II-D-71c and II-D-71b on the rate and extent of the trypsin-catalyzed hydrolysis of a commercially available trypsin substrate Nα-Benzoyl-L-arginine 4-nitroanilide hydrochloride (BANA) was evaluated in the presence of trypsin (2,000 BAEE activity) in a pH 7.4 phosphate buffer at 37° C. in vitro. Both buffer solution alone (i.e. no trypsin) and trypsin containing buffer solution (i.e. no test compounds) controls were run contemporaneously.

trypsin [2] = molecular target: T1, trypsin; test: Trypsin inhibitory potency (key differentiating attributes, Table 5); format: biochemical
Source text: (§1) As mentioned previously, a wide range of targeted oral pharmacokinetic profiles can be achieved by administering pharmaceutical compositions containing specific combinations of different polysubunit molecules to subjects. For example, the different polysubunit molecules contained in the composition may differ with regard to (i) the specific opioid agonists delivered, (ii) the rates at which the opioid agonist is delivered in vivo (i.e. to modify the oral pharmacokinetic profile of the delivered opioid), and (iii) the combined inhibitory potency of the GI enzyme inhibiting subunits [i.e. to modify the overdose protection profile and/or the prescribed dose strengths of the delivered opioid agonist(s)]. Table 5 below provides non-limiting examples of compounds of the invention with their key differentiating attributes. Table 6 discusses scenarios and rationales for using the compounds presented in Table 5 in combination with each other, in useful pharmaceutical formulations of the invention.

[3] = Rate of release of opioid agonist (key differentiating attributes, Table 5); conditions: for Rate of Release of Opioid Against: in words (Fast/Slow); for half-life: read-out: Rate of Release of Opioid Against: T1/2
Source text: as §1

[4] = after oral doses; cited from earlier work
[5] = in man; cited from earlier work

Compound: COc1ccc2c3c1O[C@H]1C(OC(=O)N4CCC(C(=O)NCCCC[C@H](NC(=O)OCc5ccccc5)C(=O)NCCOc5ccc(C(=O)Oc6cccc(NC(=N)N)c6)cc5)CC4CNC(=O)[C@@H](CCCNC(=N)N)NC(=O)CNC(C)=O)=CC[C@H]4[C@@H](C2)N(C)CC[C@]314 (stereo partly drawn) [II-D-71b]
- Percent BANA remaining (trypsin [1]; compound 10 uM, 2 minutes, trypsin 2,000 BAEE activity, pH 7.4 phosphate buffer, 37° C.): 87.9%
- Percent BANA remaining (trypsin [1]; compound 10 uM, 13 minutes, trypsin 2,000 BAEE activity, pH 7.4 phosphate buffer, 37° C.): 0%
- Percent BANA remaining (trypsin [1]; compound 10 uM, 24 minutes, trypsin 2,000 BAEE activity, pH 7.4 phosphate buffer, 37° C.): 0%
- Percent BANA remaining (trypsin [1]; compound 10 uM, 35 minutes, trypsin 2,000 BAEE activity, pH 7.4 phosphate buffer, 37° C.): 0%
- Percent BANA remaining (trypsin [1]; compound 10 uM, 46 minutes, trypsin 2,000 BAEE activity, pH 7.4 phosphate buffer, 37° C.): 0%
- Percent BANA remaining (trypsin [1]; compound 10 uM, 57 minutes, trypsin 2,000 BAEE activity, pH 7.4 phosphate buffer, 37° C.): 0%
- Percent BANA remaining (trypsin [1]; compound 10 uM, 68 minutes, trypsin 2,000 BAEE activity, pH 7.4 phosphate buffer, 37° C.): 0%
- Percent BANA remaining (trypsin [1]; compound 100 uM, 2 minutes, trypsin 2,000 BAEE activity, pH 7.4 phosphate buffer, 37° C.): 93.1%
- Percent BANA remaining (trypsin [1]; compound 100 uM, 13 minutes, trypsin 2,000 BAEE activity, pH 7.4 phosphate buffer, 37° C.): 15.1%
- Percent BANA remaining (trypsin [1]; compound 100 uM, 24 minutes, trypsin 2,000 BAEE activity, pH 7.4 phosphate buffer, 37° C.): 2.4%
- Percent BANA remaining (trypsin [1]; compound 100 uM, 35 minutes, trypsin 2,000 BAEE activity, pH 7.4 phosphate buffer, 37° C.): 2.3%
- Percent BANA remaining (trypsin [1]; compound 100 uM, 46 minutes, trypsin 2,000 BAEE activity, pH 7.4 phosphate buffer, 37° C.): 1.4%
- Percent BANA remaining (trypsin [1]; compound 100 uM, 57 minutes, trypsin 2,000 BAEE activity, pH 7.4 phosphate buffer, 37° C.): 0%
- Percent BANA remaining (trypsin [1]; compound 100 uM, 68 minutes, trypsin 2,000 BAEE activity, pH 7.4 phosphate buffer, 37° C.): 0%
- Percent BANA remaining (trypsin [1]; compound 1 mM, 2 minutes, trypsin 2,000 BAEE activity, pH 7.4 phosphate buffer, 37° C.): 100%
- Percent BANA remaining (trypsin [1]; compound 1 mM, 13 minutes, trypsin 2,000 BAEE activity, pH 7.4 phosphate buffer, 37° C.): 76.1%
- Percent BANA remaining (trypsin [1]; compound 1 mM, 24 minutes, trypsin 2,000 BAEE activity, pH 7.4 phosphate buffer, 37° C.): 66.6%
- Percent BANA remaining (trypsin [1]; compound 1 mM, 35 minutes, trypsin 2,000 BAEE activity, pH 7.4 phosphate buffer, 37° C.): 59.6%
- Percent BANA remaining (trypsin [1]; compound 1 mM, 46 minutes, trypsin 2,000 BAEE activity, pH 7.4 phosphate buffer, 37° C.): 56.3%
- Percent BANA remaining (trypsin [1]; compound 1 mM, 57 minutes, trypsin 2,000 BAEE activity, pH 7.4 phosphate buffer, 37° C.): 55.7%
- Percent BANA remaining (trypsin [1]; compound 1 mM, 68 minutes, trypsin 2,000 BAEE activity, pH 7.4 phosphate buffer, 37° C.): 53.7%
- Ability to inhibit trypsin (result in words) (trypsin [1]; pH 7.4, 37° C.): progressively inhibit trypsin in a concentration dependent manner
- Trypsin Inhibitory Potency (trypsin [2]): Low
- Rate of Release of Opioid Against [3]: Fast
- half-life [3]: ~0.167 h

Compound: COc1ccc2c3c1O[C@H]1C(OC(=O)N4CCC(C(=O)NCCCC[C@H](NC(=O)OCc5ccccc5)C(=O)NCCOc5ccc(C(=O)Oc6ccc(NC(=N)N)cc6)cc5)CC4CNC(=O)[C@@H](CCCNC(=N)N)NC(=O)CNC(C)=O)=CC[C@H]4[C@@H](C2)N(C)CC[C@]314 (stereo partly drawn) [II-D-71c]
- Percent BANA remaining (trypsin [1]; 1 uM compound, 2 minutes, pH 7.4, 37° C.): 81.5%
- Percent BANA remaining (trypsin [1]; 1 uM compound, 13 minutes, pH 7.4, 37° C.): 0%
- Percent BANA remaining (trypsin [1]; 1 uM compound, 24 minutes, pH 7.4, 37° C.): 0%
- Percent BANA remaining (trypsin [1]; 1 uM compound, 35 minutes, pH 7.4, 37° C.): 0%
- Percent BANA remaining (trypsin [1]; 1 uM compound, 46 minutes, pH 7.4, 37° C.): 0%
- Percent BANA remaining (trypsin [1]; 1 uM compound, 57 minutes, pH 7.4, 37° C.): 0%
- Percent BANA remaining (trypsin [1]; 1 uM compound, 68 minutes, pH 7.4, 37° C.): 0%
- Percent BANA remaining (trypsin [1]; 10 uM compound, 2 minutes, pH 7.4, 37° C.): 76.5%
- Percent BANA remaining (trypsin [1]; 10 uM compound, 13 minutes, pH 7.4, 37° C.): 58.5%
- Percent BANA remaining (trypsin [1]; 10 uM compound, 24 minutes, pH 7.4, 37° C.): 42.5%
- Percent BANA remaining (trypsin [1]; 10 uM compound, 35 minutes, pH 7.4, 37° C.): 26.0%
- Percent BANA remaining (trypsin [1]; 10 uM compound, 46 minutes, pH 7.4, 37° C.): 13.0%
- Percent BANA remaining (trypsin [1]; 10 uM compound, 57 minutes, pH 7.4, 37° C.): 4.7%
- Percent BANA remaining (trypsin [1]; 10 uM compound, 68 minutes, pH 7.4, 37° C.): 0%
- Percent BANA remaining (trypsin [1]; 100 uM compound, 2 minutes, pH 7.4, 37° C.): 100%
- Percent BANA remaining (trypsin [1]; 100 uM compound, 13 minutes, pH 7.4, 37° C.): 100%
- Percent BANA remaining (trypsin [1]; 100 uM compound, 24 minutes, pH 7.4, 37° C.): 99%
- Percent BANA remaining (trypsin [1]; 100 uM compound, 35 minutes, pH 7.4, 37° C.): 100%
- Percent BANA remaining (trypsin [1]; 100 uM compound, 46 minutes, pH 7.4, 37° C.): 100%
- Percent BANA remaining (trypsin [1]; 100 uM compound, 57 minutes, pH 7.4, 37° C.): 100%
- Percent BANA remaining (trypsin [1]; 100 uM compound, 68 minutes, pH 7.4, 37° C.): 100%
- Percent BANA remaining (trypsin [1]; 1 mM compound, 2 minutes, pH 7.4, 37° C.): 100%
- Percent BANA remaining (trypsin [1]; 1 mM compound, 13 minutes, pH 7.4, 37° C.): 100%
- Percent BANA remaining (trypsin [1]; 1 mM compound, 24 minutes, pH 7.4, 37° C.): 99%
- Percent BANA remaining (trypsin [1]; 1 mM compound, 35 minutes, pH 7.4, 37° C.): 100%
- Percent BANA remaining (trypsin [1]; 1 mM compound, 46 minutes, pH 7.4, 37° C.): 100%
- Percent BANA remaining (trypsin [1]; 1 mM compound, 57 minutes, pH 7.4, 37° C.): 100%
- Percent BANA remaining (trypsin [1]; 1 mM compound, 68 minutes, pH 7.4, 37° C.): 100%
- Ability to inhibit trypsin (result in words) (trypsin [1]; pH 7.4, 37° C.): progressively inhibit trypsin in a concentration dependent manner
- Trypsin Inhibitory Potency (trypsin [2]): High
- Rate of Release of Opioid Against [3]: Fast
- half-life [3]: ~0.167 h

Compound: COc1ccc2c3c1OC1C(OC(=O)N(C)C(CNC(=O)[C@H](CCCNC(=N)N)NC(=O)CNC(C)=O)C(=O)NCCCC[C@H](NC(=O)OCc4ccccc4)C(=O)NCCOc4ccc(C(=O)Oc5cccc(NC(=N)N)c5)cc4)=CC[C@H]4[C@@H](C2)N(C)CC[C@]314 (stereo partly drawn) [II-J-71b]
- Trypsin Inhibitory Potency (trypsin [2]): Low
- Rate of Release of Opioid Against [3]: Slow
- half-life [3]: ~3 h

Compound: COc1ccc2c3c1OC1C(OC(=O)N(C)C(CNC(=O)[C@H](CCCNC(=N)N)NC(=O)CNC(C)=O)C(=O)NCCCC[C@H](NC(=O)OCc4ccccc4)C(=O)NCCOc4ccc(C(=O)Oc5ccc(NC(=N)N)cc5)cc4)=CC[C@H]4[C@@H](C2)N(C)CC[C@]314 (stereo partly drawn) [II-J-71c]
- Trypsin Inhibitory Potency (trypsin [2]): High
- Rate of Release of Opioid Against [3]: Slow
- half-life [3]: ~3 h

Compound: C[C@H]1[C@H]2Cc3ccc(O)cc3[C@]1(C)CCN2CC1CC1 [cyclazocine]
- Duration of action [4]: ~24 h

Compound: O=C1CC[C@@]2(O)[C@H]3Cc4ccc(O)c5c4[C@@]2(CCN3CC2CC2)[C@H]1O5 [naltrexone, Naltrexone]
- Duration of action [4]: ~24 h
- Oral bioavailability [5]: 5-40%
